Measurements from US11260096B2, “Compositions for creatine supplementation in creatine non-responders” (ThermoLife International, LLC, priority 2019, dated 2022).
Several values for one entry are separate records, joined by “and”; a condition that tells them apart may be missing. Identical values can stand only once. Entries after “also recorded” stand apart in the source; their conditions may differ.

Assays:
[1] = single-dose pharmacokinetics experiment: serum creatine and creatinine by LC-MS/MS; format: in vivo, human; details: for AUC (serum creatine) after single-dose intervention: linear-log trapezoidal method
Procedure: (§1) Ten healthy young men (age 23.6±2.9 years, body mass index 23.8±1.5 kg/m′) were recruited and signed informed consent to voluntarily participate in this double-blind, crossover, randomized controlled trial. All experimental procedures were approved by the local institutional review board, and the study was conducted in accordance with the Declaration of Helsinki. All participants had no history of creatine supplementation (or other dietary supplements) within the 4 weeks before the study commenced. All participants also had no acute or chronic diseases as evaluated by pre-participation health check and blood profiles. All participants were required to maintain their normal activity patterns and diet during the study. The participants were required to not engaged in any exhaustive exercise 24 hours before the study commenced.
(§2) Washout period of 7 days was employed between all trials to prevent the residual or carry-over effects of treatments across study periods. For the single-dose experiment, participants were administered a liquid composition that was prepared by a researcher by dissolving a powder of their respective treatment compounds in 150 mL of lukewarm water. For the 5-day intervention, the participants received five powder sachets (one per day) containing an treatment compounds. The participants were advised to stir the content of the sachet into 150 mL of lukewarm water until the powder has dissolved and to drink the liquid composition about 30 minutes before breakfast. […] Clinical assessments for both experiments were carried out between 08:00 and 12:00 after an overnight fast of 12 hours. Venous blood samples were drawn at each time point (7 points in total) for a single-dose experiment, and serum analyzed for creatine and creatinine by modified LC-MS/MS (1200 Series LC System; Agilent Technologies Inc., Santa Clara, Calif., USA). To control for variance based on different hydration levels, all participants were restricted from water ingestion between the time of collecting the baseline sample and 120 minutes after administration of the treatment. For 5-day experiment, venous blood samples were drawn at baseline and at the various follow-up times, with serum analyzed for liver enzymes by an automated analyzer (Randox Laboratories Ltd., Crumlin, UK).
Where significant differences were found, the Tukey post-hoc test was employed to identify the differences. The area under the concentration-time curve (AUC) for serum creatine and creatinine were calculated using the linear-log trapezoidal method, with AUCs compared with one-way ANOVA. The significance level was set at P<0.05. Data were analyzed using the SPSS program (SPSS Inc., Chicago, Ill., USA).

[2] = 5-day intervention: liver enzymes and estimated glomerular filtration rate (safety biomarkers); format: in vivo, human
Procedure: as §1
as §2, with “Creatinine anhydrous has been produced from creatine monohydrate in an autoclave (Memmert UF 55, Schwabach, Germany) at 160° C.” for “Clinical assessments”, “72 hours, with creatinine purity>99% in a final powder, as determined by NMR spectroscopy (Bruker Avance III 400, Billerica, Mass.). […]” for “both experiments were carried out between 08:00 and 12:00 after an overnight fast of 12 hours.”, “To control for variance based on different hydration levels, all participants were restricted from water ingestion between the time of collecting the baseline sample and 120 minutes after administration of the treatment.” left out
Estimated glomerular filtration rate (eGFR) was calculated by the abbreviated MDRD equation (Stevens et al., Am J Kidney Dis. 2007; 50: 21-35). […] In vivo metabolite concentrations were calculated using the muscle water signal as an internal intensity reference (Wang et al., J Magn Reson. 2014, 243: 81-84). […] The peak integral values of the total creatine (creatine plus phosphocreatine) signal at 3.0 ppm and the non-suppressed water signal at 4.7 ppm were quantified using curve-fitting to Gaussian lines. […]

[3] = 5-day intervention: total muscle creatine by proton magnetic resonance spectroscopy (MRS); format: in vivo, human; details: after five-day intervention vs baseline
Procedure: as §1, with “The participants were required to not engaged in any exhaustive exercise 24 hours before the study commenced.” left out
Washout period of 7 days was employed between all trials to prevent the residual or carry-over effects of treatments across study periods. […] Creatinine anhydrous has been produced from creatine monohydrate in an autoclave (Memmert UF 55, Schwabach, Germany) at 160° C. for 72 hours, with creatinine purity>99% in a final powder, as determined by NMR spectroscopy (Bruker Avance III 400, Billerica, Mass.). […] Venous blood samples were drawn at each time point (7 points in total) for a single-dose experiment, and serum analyzed for creatine and creatinine by modified LC-MS/MS (1200 Series LC System; Agilent Technologies Inc., Santa Clara, Calif., USA). […]

[4] = adverse events evaluated via open-ended questionnaires; format: in vivo, human; details: 5-day intervention, single participants
Procedure: Estimated glomerular filtration rate (eGFR) was calculated by the abbreviated MDRD equation (Stevens et al., Am J Kidney Dis. 2007; 50: 21-35). […] Twelve datasets were obtained for each individual yielding a total of 120 spectra in this study. In vivo metabolite concentrations were calculated using the muscle water signal as an internal intensity reference (Wang et al., J Magn Reson. 2014, 243: 81-84). The spectra were fitted in the time domain using a nonlinear least squares algorithm ([…]) in the Java-based magnetic resonance user interface (jMRUI) software package. […] Finally, possible adverse events of the intervention (e.g. muscle cramps, bloating, diarrhea) were evaluated via open-ended questionnaires administered during the trial.

[5] = cited from earlier work

SMILES | concentration at 60 min ([1]; male, human, in vivo, single oral dose (3 g CN + 3 g creatinine, 3 g CN or 3 g CRM), peak time, n=10 healthy men, read-out: average serum creatine concentration at 60 minutes post-administration) [µM] | change in serum creatinine during the single-dose study (in words) ([1]; single oral dose) | AUC (serum creatine) after single-dose intervention ([1]; single oral dose) [µmol·min/L] | participants with mildly reduced kidney function (eGFR 60-89 mL/min/1.73 m^2) ([2]; 5-day intervention, n=10) [%] | eGFR ([2]; at 5-day follow-up, mean ± SD, abbreviated MDRD equation) [mL/min/1.73 m^2] | average increase in total muscle creatine levels [3] [%] | reported side effects / adverse events (in words) ([4]; nitrate) | AUC for serum creatinine ([1]; single oral dose) [µmol·min/L] | eGFR ([2]; in vivo) [mL/min/1.73 m^2] | participants with mildly reduced kidney function (eGFR 60-89 mL/min/1.73 m^2) ([2]; in vivo) [%] | reported side effects / adverse events (in words) [4] | increase of total creatine content in skeletal muscles ([5]; dosages up to 30 g for a few days, human subject) | individuals who do not respond to creatine supplementation (prevalence of non-responders) ([5]; less than 10 mmol/kg dw increase in resting total muscle creatine after five days at 20 g/day)
CN(CC(=O)O)C(=N)N.O=[N+]([O-])O [CN, creatine nitrate] | 164 ± 12.9 | remained essentially unchanged | 622.7 ± 62.9 | 40.0 | 89.8 ± 8.1 | 8.0 | irregular non-diarrheal bowel movements; also recorded: excessive sleepiness |  |  |  |  |  | 
CN(CC(=O)O)C(=N)N.O [CRM, creatine monohydrate] |  | remained essentially unchanged | 466.3 ± 47.9 |  |  | 2.1 |  | 607.5 ± 37.7 | 91.7 ± 8.3 | 30.0 | episodes of bloating | more than 20% | 
CN(CC(=O)O)C(=N)N [creatine] |  |  |  |  |  |  |  |  |  |  |  |  | about 25% and 20-30%
